Results from patent US20130281528A1, “METHOD OF TREATING GASTRIC CANCER” (Niiki Pharma Acquisition Corp.2, priority 2010, published 2013).
pIC50: −log10 of the molar value.

Test system: human gastric cancer cell line NCI-N87
Assay: ATCC's MTT Cell Proliferation Assay
Assay type: cell-based
Settings: 72 hours post-treatment, concentration that inhibits cell growth by 50%
Description: To test the activities of sodium trans-[tetrachlorobis(1H-indazole)ruthenate(III)], ATCC's MTT Cell Proliferation Assay® was performed using human gastric cancer cell line NCI-N87 (differentiated carcinoma). Stock cultures were allowed to grow to 70-80% confluence for this study. The anti-proliferative activity of sodium trans-[tetrachlorobis(1H-indazole)ruthenate(III)], against the indicated cell line was evaluated in vitro using the ATCC's MTT Cell Proliferation Assay (Catalog No. 30-1010K). NCI-N87 was grown using RPMI1640 (Cell Gro 10-040-CV), with 1% of 1M HEPES, 1% sodium pyruvate, 1% of 45% glucose solution, 10% of heat-inactivated FBS and 1% of pen/strep/glutamine. […] The plates were left overnight at room temperature in the dark and was read on a plate reader using SoftMax® Pro (version 5.2, Molecular Devices).
The absorbance data was analyzed as follows: Absorbance values were converted to Percent of Control and plotted against test agent concentrations for IC50 calculations using SoftMax® Pro (version 5.2, Molecular Devices). […] Percent of Control values were calculated by dividing the absorbance values for each test well by the No Drug Control average (column 11 values; cells+vehicle control) and multiplying by 100. […]

[Cl][Ru-]([Cl])([Cl])[Cl].[Na+].c1ccc2[nH]ncc2c1.c1ccc2[nH]ncc2c1 [sodium trans-[tetrachlorobis(1H-indazole)ruthenate(III)]]
pIC50: 5.43
